Here are results for 11 molecules from patent US20240254115A1 (ACONDICIONAMIENTO TARRASENSE, priority 2021, published 2024).

One assay deals with T1, human σ1 receptor (Homo sapiens, UniProt Q99720).
T1 construct: expressed in transfected cells; host or cells: HEK-293
The assay can be described thus: Human σ1 receptor radioligand assay. To be noted: transfected HEK-293 membranes, 5 nM [3H](+)-pentazocine, 37° C. 120 minutes; + may also stand for 1-50% inhibition at 1 or 10 μM; read-out: Binding σ-1 Ki. An outline of the steps:
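Membranes (7 μg) were incubated with 5 nM [3H](+)-pentazocine in 50 mM Tris-HCl pH 8 for 120 min at 37° C. Non-specific binding was defined with 10 μM haloperidol. Values are % inhibition at 1 or 10 μM or Ki from five concentrations, read by filtration and scintillation counting.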

A further assay has as its target T2, human σ2/TMEM97 receptor (Homo sapiens, UniProt Q5BJF2).
T2 construct: expressed in transfected cells; host or cells: HEK-293
The assay can be described thus: Binding assay to human σ2/TMEM97 receptor. To be noted: transfected HEK-293 membranes, 10 nM [3H]-DTG, 25° C. 120 minutes; + may also stand for 1-50% inhibition at 1 or 10 μM; read-out: Binding σ-2 Ki. The essentials: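 Membranes from transfected HEK-293 cells (15 µg) were incubated with 10 nM [3H]-DTG in 50 mM Tris-HCl pH 8.0 for 120 min at 25 °C, with 10 µM haloperidol defining non-specific binding. Filtration and scintillation counting followed. Compounds tested as % inhibition at 1 or 10 µM, or at five concentrations for Ki.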

A further assay concerns the target sigma-2 (σ2) site (Homo sapiens, UniProt Q5BJF2). The conditions noted are these: background statement; cited from earlier work.
Assay [1] has as its system spared nerve injury (SNI) mice. To be noted: SNI mice model of neuropathic pain; cited from earlier work.

Some results are limits rather than exact numbers.

T1 sequence (Q99720 whole entry): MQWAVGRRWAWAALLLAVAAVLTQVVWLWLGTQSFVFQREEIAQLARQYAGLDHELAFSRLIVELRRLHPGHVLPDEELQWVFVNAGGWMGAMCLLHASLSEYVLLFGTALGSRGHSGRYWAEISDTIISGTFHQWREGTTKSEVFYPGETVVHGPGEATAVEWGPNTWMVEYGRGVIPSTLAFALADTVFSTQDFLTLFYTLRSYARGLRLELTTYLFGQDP
T2 sequence (Q5BJF2 whole entry): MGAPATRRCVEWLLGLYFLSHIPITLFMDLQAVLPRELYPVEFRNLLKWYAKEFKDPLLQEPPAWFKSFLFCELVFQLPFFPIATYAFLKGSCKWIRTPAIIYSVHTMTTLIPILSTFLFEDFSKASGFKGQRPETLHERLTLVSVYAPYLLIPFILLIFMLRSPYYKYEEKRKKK
Chain of sigma-2 (σ2) site (Q5BJF2 whole entry): as above

Regarding `CN(Cc1ccccc1)[C@H]1CC[C@H](NS(=O)(=O)c2ccc(N3CCC(F)(F)CC3)nc2)CC1` [Example 175, N-((1r,4r)-4-(Benzyl(methyl)amino)cyclohexyl)-6-(4,4-difluoropiperidin-1-yl)pyridine-3-sulfonamide], the Ki at human σ1 receptor was 100 to 500 nM; on human σ2/TMEM97 receptor it was less than 100 nM.

Take `CN(Cc1ccccc1)[C@H]1CC[C@H](NS(=O)(=O)c2ccc(N3CCC4(CCCO4)CC3)nc2)CC1` [Example 176, N-((1r,4r)-4-(Benzyl(meth-yl)amino)cyclohexyl)-6-(1-oxa-8-azaspiro[4.5]decan-8-yl)pyridine-3-sulfonamide]: the Ki is more than 1000 nM at human σ1 receptor and less than 100 nM at human σ2/TMEM97 receptor. Consider `CN(CC1CCOCC1)[C@H]1CC[C@H](NS(=O)(=O)c2ccc(N3CCC4(CCCO4)CC3)nc2)CC1` [Example 177, N-((1r,4r)-4-(Methyl((tetrahydro-2H-pyran-4-yl)methyl)amino)cyclohexyl)-6-(1-oxa-8-azaspiro[4.5]decan-8-yl)pyridine-3-sulfonamide], for which the Ki at human σ1 receptor was more than 1000 nM; at human σ2/TMEM97 receptor, less than 100 nM. For `CN(Cc1ccccc1F)[C@H]1CC[C@H](NS(=O)(=O)c2ccc(N3CCC4(CCCO4)CC3)nc2)CC1` [Example 178, N-((1r,4r)-4-((2-Fluorobenz-yl)(methyl)amino)cyclohexyl)-6-(1-oxa-8-azaspiro[4.5]decan-8-yl)pyridine-3-sulfonamide], in that order: more than 1000 nM and less than 100 nM. Taken in the same sequence, the figures for `CN(Cc1cc(F)ccc1F)[C@H]1CC[C@H](NS(=O)(=O)c2ccc(N3CCC4(CCOC4)CC3)nc2)CC1` [Example 179, N-((1r,4r)-4-((2,5-Difluoro-benzyl)(methyl)amino)cyclohexyl)-6-(2-oxa-8-azaspiro[4.5]decan-8-yl)pyridine-3-sulfonamide] were more than 1000 nM and less than 100 nM. For `CN(Cc1ccc(F)c(F)c1)[C@H]1CC[C@H](NS(=O)(=O)c2ccc(N3CCC4(CCOC4)CC3)nc2)CC1` [Example 180, N-((1r,4r)-4-((3,4-Difluoro-benzyl)(methyl)amino)cyclohexyl)-6-(2-oxa-8-azaspiro[4.5]decan-8-yl)pyridine-3-sulfonamide], in that order: more than 1000 nM and less than 100 nM.

As for `CN(CCC(C)(C)C)[C@H]1CC[C@H](NS(=O)(=O)c2ccc(N3CCC4(CCOC4)CC3)nc2)CC1` [Example 181, N-((1r,4r)-4-((3,3-Dimethylbut-yl)(methyl)amino)cyclohexyl)-6-(2-oxa-8-azaspiro[4.5]decan-8-yl)pyridine-3-sulfonamide], the Ki at human σ1 receptor is 500 to 1000 nM; on human σ2/TMEM97 receptor it was less than 100 nM.

For the molecule `CN(CC(C)(C)C)[C@H]1CC[C@H](NS(=O)(=O)c2ccc(N3CCC4(CCOC4)CC3)nc2)CC1` [Example 182, N-((1r,4r)-4-(Methyl(neopentyl)a-mino)cyclohexyl)-6-(2-oxa-8-azaspiro[4.5]decan-8-yl)pyridine-3-sulfonamide], the values for the Ki at human σ1 receptor and on human σ2/TMEM97 receptor were more than 1000 nM and 500 to 1000 nM, respectively. For the molecule `CN(CC1CCOCC1)[C@H]1CC[C@H](NS(=O)(=O)c2ccc(N3CCC4(CCOC4)CC3)nc2)CC1` [Example 183, N-((1r,4r)-4-(Methyl((tetrahydro-2H-pyran-4-yl)methyl)amino)cyclohexyl)-6-(2-oxa-8-azaspiro[4.5]decan-8-yl)pyridine-3-sulfonamide], the Ki on human σ1 receptor and at human σ2/TMEM97 receptor was 500 to 1000 nM each time.

Turning to (+)-SKF-10047, on sigma-2 (σ2) site, the “affinity for the sigma-2 (σ2) site” value is recorded as “micromolar affinity”. Regarding UKH-1114, in assay [1], the mechanical hypersensitivity result is on record as “relieved mechanical hypersensitivity”.

Broadly, the Ki is the equilibrium dissociation constant of an inhibitor or competing ligand from its target.
